Assay results as given in patent publication US11040034B2 (priority 2016, dated 2021).
Where two headings read alike, the source gives them in different places.

Legend:
[1] = cynomolgus monkey liver microsomes
[2] = rat liver microsomes

CCS(=O)(=O)NCc1cc(-c2nc3cc(F)c(F)cc3n2C2CC2)cnn1 [Example 52, N-((5-(1-Cyclopropyl-5,6-difluoro-1H-benzo[d]imidazol-2-yl)pyridazin-3-yl)methyl)ethanesulfonamide]
metabolic stability in comparison to comparison example [1]: greater metabolic stability | metabolic stability in comparison to comparison example [2]: greater metabolic stability
